Assay results taken from US20250034136A1 (Nimbus Wadjet, Inc., priority 2023, published 2025).

Experiments:
[1] = test system: p21 induction in HCT116 cells; experiment: p21 induction in HCT116 cells; format: cell-based; settings: Homo sapiens, HCT-116, 24 h, HCT116 cells, 24 h compound incubation; read-out: P21_EC50
Outline: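 HCT116 cells, 2,000/well, treated 24 h at 37 °C with 11-point compound dilutions in duplicate. Fixed, then immunostained for p21 and GAPDH and read by near-IR imaging at 800/700 nm. Normalized to DMSO (low) and reference WRN inhibitor (high) controls; EC50 from non-linear regression.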

[2] = target: WRN (BV08), human Werner helicase (Uniprot Q14191, amino acids 517-1235 with L1074F point mutation) (Homo sapiens (Human), UniProt Q14191, L1074F); experiment: WRN (BV08) ADP-Glo assay; format: biochemical; settings: class symbols A-E, read-out: ADP-Glo_hWRN_IC50
WRN (BV08), human Werner helicase (Uniprot Q14191, amino acids 517-1235 with L1074F point mutation), sequence (Q14191 other isoform, or with tags, fused parts or gaps L1074F (already in the parent)): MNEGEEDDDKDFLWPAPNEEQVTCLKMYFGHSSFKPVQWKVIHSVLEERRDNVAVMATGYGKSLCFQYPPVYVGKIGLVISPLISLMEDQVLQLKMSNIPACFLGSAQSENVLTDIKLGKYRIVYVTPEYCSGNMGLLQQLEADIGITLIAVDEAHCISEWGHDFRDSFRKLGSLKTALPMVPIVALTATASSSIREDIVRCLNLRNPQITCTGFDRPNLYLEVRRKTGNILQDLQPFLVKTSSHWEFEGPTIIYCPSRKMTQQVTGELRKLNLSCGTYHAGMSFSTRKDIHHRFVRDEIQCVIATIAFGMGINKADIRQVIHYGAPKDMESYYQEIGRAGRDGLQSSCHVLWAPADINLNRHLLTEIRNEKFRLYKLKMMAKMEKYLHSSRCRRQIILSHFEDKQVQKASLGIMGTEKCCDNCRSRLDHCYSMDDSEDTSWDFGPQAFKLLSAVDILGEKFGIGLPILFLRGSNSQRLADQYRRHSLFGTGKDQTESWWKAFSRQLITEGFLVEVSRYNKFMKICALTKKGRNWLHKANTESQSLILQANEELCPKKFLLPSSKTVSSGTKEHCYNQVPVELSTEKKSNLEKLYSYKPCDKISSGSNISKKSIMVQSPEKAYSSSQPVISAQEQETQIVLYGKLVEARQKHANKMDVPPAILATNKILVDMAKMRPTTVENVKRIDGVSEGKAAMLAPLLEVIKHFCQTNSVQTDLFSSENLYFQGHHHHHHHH

CCc1c(N2CCN(C(=O)c3c(OC)ncc(C)c3O)C[C@@H]2C)c(=O)c2nc(C3CC3)cnc2n1CC(=O)Nc1ccc(C(F)(F)F)cc1Cl [I-225, N-[2-chloro-4-(trifluoromethyl)phenyl]-2-{2-cyclopropyl-6-ethyl-7-[(2S)-4-(4-hydroxy-2-methoxy-5-methylpyridine-3-carbonyl)-2-methylpiperazin-1-yl]-8-oxo-5H,8H-pyrido[2,3-b]pyrazin-5-yl}acetamide]
EC50 [1]: < 500 nM | IC50 [2]: 5 to 50 nM

CCc1c(N2CCN(C(=O)c3ncnc(C)c3O)[C@H](C)[C@H]2C)c(=O)c2nc(N(C)C)cnc2n1CC(=O)Nc1ccc(C(F)(F)F)cc1Cl (single isomer, unassigned) [I-233, N-(2-chloro-4-(trifluoromethyl)phenyl)-2-(2-(dimethylamino)-6-ethyl-7-(4-(5-hydroxy-6-methylpyrimidine-4-carbonyl)-2,3-dimethylpiperazin-1-yl)-8-oxopyrido[2,3-b]pyrazin-5(8H)-yl)acetamide]
EC50 [1]: > 5000 nM | IC50 [2]: 5 to 50 nM

CCc1c(N2CCN(C(=O)c3ncnc(C)c3O)C(CO)C2)c(=O)c2nc(N(C)C)cnc2n1CC(=O)Nc1ccc(C(F)(F)F)cc1Cl (stereo not shown) [I-178, N-[2-chloro-4-(trifluoromethyl)phenyl]-2-[2-(dimethylamino)-6-ethyl-7-[4-(5-hydroxy-6-methylpyrimidine-4-carbonyl)-3-(hydroxymethyl)piperazin-1-yl]-8-oxo-5H,8H-pyrido[2,3-b]pyrazin-5-yl]acetamide]
EC50 [1]: > 5000 nM | IC50 [2]: 5 to 50 nM

CCc1c(N2CCN(C(=O)c3ncnc(C)c3O)CC2)c(=O)c2nc(C3=CCOC3)cnc2n1CC(=O)Nc1ccc(C(F)(F)F)cc1Cl [I-90, N-(2-chloro-4-(trifluoromethyl)phenyl)-2-(2-(2,5-dihydrofuran-3-yl)-6-ethyl-7-(4-(5-hydroxy-6-methylpyrimidine-4-carbonyl)piperazin-1-yl)-8-oxopyrido[2,3-b]pyrazin-5(8H)-yl)acetamide]
EC50 [1]: > 5000 nM | IC50 [2]: 5 to 50 nM

CCc1c(N2CCN(C(=O)c3ncnc(C)c3O)CC2)c(=O)c2nc(N3CCC4CC43)cnc2n1CC(=O)Nc1ccc(C(F)(F)F)cc1Cl (stereo not shown) [I-93, 2-(2-(2-azabicyclo[3.1.0]hexan-2-yl)-6-ethyl-7-(4-(5-hydroxy-6-methylpyrimidine-4-carbonyl)piperazin-1-yl)-8-oxopyrido[2,3-b]pyrazin-5(8H)-yl)-N-(2-chloro-4-(trifluoromethyl)phenyl)acetamide]
EC50 [1]: 500 to 2000 nM | IC50 [2]: 5 to 50 nM

CCc1c(N2CCN(C(=O)c3ncnc(C)c3O)CC2)c(=O)c2nc(-c3ccnc(OC)c3)c(C)nc2n1CC(=O)Nc1ccc(C(F)(F)F)cc1Cl [I-65, N-(2-chloro-4-(trifluoromethyl)phenyl)-2-(6-ethyl-7-(4-(5-hydroxy-6-methylpyrimidine-4-carbonyl)piperazin-1-yl)-2-(2-methoxypyridin-4-yl)-3-methyl-8-oxopyrido[2,3-b]pyrazin-5(8H)-yl)acetamide]
EC50 [1]: > 5000 nM | IC50 [2]: 5 to 50 nM

CCc1c(N2CCN(C(=O)c3nccc(F)c3O)CC2)c(=O)c2nc(N(C)C)cnc2n1CC(=O)Nc1ccc(C(F)(F)F)cc1Cl [I-212, N-[2-chloro-4-(trifluoromethyl)phenyl]-2-[2-(dimethylamino)-6-ethyl-7-[4-(4-fluoro-3-hydroxypyridine-2-carbonyl)piperazin-1-yl]-8-oxo-5H,8H-pyrido[2,3-b]pyrazin-5-yl]acetamide]
EC50 [1]: 500 to 2000 nM | IC50 [2]: 5 to 50 nM

CCc1c(N2CCN(C(=O)c3c(O)ccc4[nH]ncc34)CC2)c(=O)c2ncc(C)nc2n1CC(=O)Nc1ccc(C(F)(F)F)cc1Cl [I-76, N-(2-chloro-4-(trifluoromethyl)phenyl)-2-(6-ethyl-7-(4-(5-hydroxy-1H-indazole-4-carbonyl)piperazin-1-yl)-3-methyl-8-oxopyrido[2,3-b]pyrazin-5(8H)-yl)acetamide]
EC50 [1]: > 5000 nM | IC50 [2]: 5 to 50 nM

CCc1c(N2CCN(C(=O)c3c(O)cccc3O)CC2)c(=O)c2ncc(C)nc2n1CC(=O)Nc1ccc(C(F)(F)F)cc1Cl [I-67, N-(2-chloro-4-(trifluoromethyl)phenyl)-2-(7-(4-(2,6-dihydroxybenzoyl)piperazin-1-yl)-6-ethyl-3-methyl-8-oxopyrido[2,3-b]pyrazin-5(8H)-yl)acetamide]
EC50 [1]: > 5000 nM | IC50 [2]: 5 to 50 nM

CCc1c(N2CCN(C(=O)c3ncnc(C)c3O)[C@H]3CC[C@@H]32)c(=O)c2nc(-c3ccnn3C)cnc2n1CC(=O)Nc1ccc(C(F)(F)F)cc1Cl [I-241, N-[2-chloro-4-(trifluoromethyl)phenyl]-2-{6-ethyl-7-[(1S,6S)-5-(5-hydroxy-6-methylpyrimidine-4-carbonyl)-2,5-diazabicyclo[4.2.0]octan-2-yl]-2-(1-methyl-1H-pyrazol-5-yl)-8-oxo-5H,8H-pyrido[2,3-b]pyrazin-5-yl}acetamide]
EC50 [1]: < 500 nM | IC50 [2]: ≤ 5 nM

CCc1c(N2CCN(C(=O)c3ncnc(C)c3O)CC2)c(=O)c2nc(/C=C/C(=O)N(C)C)cnc2n1CC(=O)Nc1ccc(C(F)(F)F)cc1Cl [I-134, (2E)-3-[5-({[2-chloro-4-(trifluoromethyl)phenyl]carbamoyl}methyl)-6-ethyl-7-[4-(5-hydroxy-6-methylpyrimidine-4-carbonyl)piperazin-1-yl]-8-oxo-5H,8H-pyrido[2,3-b]pyrazin-2-yl]-N,N-dimethylprop-2-enamide]
EC50 [1]: > 5000 nM | IC50 [2]: 50 to 100 nM

CCc1c(N2CCN(C(=O)c3ncnc(C)c3O)CC2)c(=O)c2nc(N3CCCC3)cnc2n1CC(=O)Nc1ccc(C(F)(F)F)cc1Cl [I-75, N-(2-chloro-4-(trifluoromethyl)phenyl)-2-(6-ethyl-7-(4-(5-hydroxy-6-methylpyrimidine-4-carbonyl)piperazin-1-yl)-8-oxo-2-(pyrrolidin-1-yl)pyrido[2,3-b]pyrazin-5(8H)-yl)acetamide]
EC50 [1]: 500 to 2000 nM | IC50 [2]: 5 to 50 nM

CCc1c(N2CCN(C(=O)c3ncnc(C)c3O)CC2)c(=O)c2nc(N3CCC3)cnc2n1CC(=O)Nc1ccc(C(F)(F)F)cc1Cl [I-53, 2-(2-(azetidin-1-yl)-6-ethyl-7-(4-(5-hydroxy-6-methylpyrimidine-4-carbonyl)piperazin-1-yl)-8-oxopyrido[2,3-b]pyrazin-5(8H)-yl)-N-(2-chloro-4-(trifluoromethyl)phenyl)acetamide]
EC50 [1]: 500 to 2000 nM | IC50 [2]: 5 to 50 nM

CCc1c(N2CCN(C(=O)c3ncnc(C)c3O)CC2)c(=O)c2nc(N(C)C3CCC3)cnc2n1CC(=O)Nc1ccc(C(F)(F)F)cc1Cl [I-131, N-[2-chloro-4-(trifluoromethyl)phenyl]-2-{2-[cyclobutyl(methyl)amino]-6-ethyl-7-[4-(5-hydroxy-6-methylpyrimidine-4-carbonyl)piperazin-1-yl]-8-oxo-5H,8H-pyrido[2,3-b]pyrazin-5-yl}acetamide]
EC50 [1]: 500 to 2000 nM | IC50 [2]: 5 to 50 nM

CCc1c(N2CCN(C(=O)c3ncnc(C)c3O)[C@H]3CC[C@@H]32)c(=O)c2nc(C)c(C)nc2n1CC(=O)Nc1ccc(C(F)(F)F)cc1F [I-128, 2-(6-ethyl-7-((1S,6S)-5-(5-hydroxy-6-methylpyrimidine-4-carbonyl)-2,5-diazabicyclo[4.2.0]octan-2-yl)-2,3-dimethyl-8-oxopyrido[2,3-b]pyrazin-5(8H)-yl)-N-(2-fluoro-4-(trifluoromethyl)phenyl)acetamide]
EC50 [1]: < 500 nM | IC50 [2]: 5 to 50 nM

CCc1c(N2CCN(C(=O)c3ncnc(C)c3O)[C@H]3CCC32)c(=O)c2nc(OC)c(C)nc2n1CC(=O)Nc1ccc(C(F)(F)F)cc1Cl (mixture of isomers) [I-16, rac-N-(2-chloro-4-(trifluoromethyl)phenyl)-2-(6-ethyl-7-(5-(5-hydroxy-6-methylpyrimidine-4-carbonyl)-2,5-diazabicyclo[4.2.0]octan-2-yl)-2-methoxy-3-methyl-8-oxopyrido[2,3-b]pyrazin-5(8H)-yl)acetamide]
EC50 [1]: 500 to 2000 nM | IC50 [2]: 5 to 50 nM

CCc1c(N2CCN(C(=O)c3ncnc(C)c3O)CC2)c(=O)c2nc(C=C3CCCC3)cnc2n1CC(=O)Nc1ccc(C(F)(F)F)cc1Cl [I-166, N-[2-chloro-4-(trifluoromethyl)phenyl]-2-[2-(cyclopentylidenemethyl)-6-ethyl-7-[4-(5-hydroxy-6-methylpyrimidine-4-carbonyl)piperazin-1-yl]-8-oxo-5H,8H-pyrido[2,3-b]pyrazin-5-yl]acetamide]
EC50 [1]: 500 to 2000 nM | IC50 [2]: ≤ 5 nM

CCc1c(N2CCN(C(=O)c3ncnc(C)c3O)[C@H]3CC[C@@H]32)c(=O)c2nc(N(C)C)cnc2n1CC(=O)Nc1cc(F)c(C(F)(F)F)cc1C [I-236, 2-[2-(dimethylamino)-6-ethyl-7-[(1S,6S)-5-(5-hydroxy-6-methylpyrimidine-4-carbonyl)-2,5-diazabicyclo[4.2.0]octan-2-yl]-8-oxo-5H,8H-pyrido[2,3-b]pyrazin-5-yl]-N-[5-fluoro-2-methyl-4-(trifluoromethyl)phenyl]acetamide]
EC50 [1]: < 500 nM | IC50 [2]: 5 to 50 nM

CCc1c(N2CCN(C(=O)c3ncnc(C)c3O)[C@H]3CC[C@@H]32)c(=O)c2nc3nc(C)sc3nc2n1CC(=O)Nc1ccc(C(F)(F)F)cc1Cl [I-114, N-(2-chloro-4-(trifluoromethyl)phenyl)-2-(6-ethyl-7-((1S,6S)-5-(5-hydroxy-6-methylpyrimidine-4-carbonyl)-2,5-diazabicyclo[4.2.0]octan-2-yl)-2-methyl-8-oxopyrido[2,3-b]thiazolo[4,5-e]pyrazin-5(8H)-yl)acetamide]
EC50 [1]: < 500 nM | IC50 [2]: 5 to 50 nM

CCc1c(N2CCN(C(=O)c3ncnc(C)c3O)[C@H]3CC[C@@H]32)c(=O)c2nc(CN3CCOCC3)cnc2n1CC(=O)Nc1ccc(C(F)(F)F)cc1Cl [I-285, N-[2-chloro-4-(trifluoromethyl)phenyl]-2-{6-ethyl-7-[(1S,6S)-5-(5-hydroxy-6-methylpyrimidine-4-carbonyl)-2,5-diazabicyclo[4.2.0]octan-2-yl]-2-[(morpholin-4-yl)methyl]-8-oxo-5H,8H-pyrido[2,3-b]pyrazin-5-yl}acetamide]
EC50 [1]: 500 to 2000 nM | IC50 [2]: 5 to 50 nM
